Experimental data taken from article PMC4418728, “A High Throughput Protein Microarray Approach to Classify HIV Monoclonal Antibodies and Variant Antigens” (PLoS ONE, 2015).
No end group written: not given here.

How the values were obtained:
[1] = test system: mAb 4E10; assay: In-solution competition ELISA; format: binding, human; conditions: for IC50: read-out: IC50 of competitor peptide, mAb 4E10
Description: (§1) The in-solution competition ELISA was performed according to Stanfield and colleagues. In brief, 96-well plates were coated o/n with 200 ng/well neutravidin (Pierce) in PBS at 4°C and blocked with 4% NFDM for 1 h at RT. Different competing MPER peptide analogs (serially diluted 1:3 in 1% NFDM at a starting concentration of 0.04 mM) were mixed with a constant concentration of biotinylated peptide bio-0705 (0.1 μg/ml) or bio-57 (0.1 μg/ml) and the corresponding human mAb 4E10 (0.5 μg/ml) or mAb 2F5 (0.2 μg/ml), respectively. The antibody/peptide mixture was incubated for 2 h at 37°C, subsequently transferred to the neutravidin plates and incubated at 37°C for 20 min. Bound antibodies were detected with HRP labeled goat anti human F(ab)2 conjugate (Pierce). After 1 h at RT, wells were developed, stopped and read as described above. The concentration of competitor peptide corresponding to a half-maximal signal (IC50) was determined by nonlinear fit interpolation of the resulting binding curve (GraphPad PRISM 5.0 software). Each peptide competitor was tested in duplicate in at least two separate experiments.

[2] = test system: mAb 2F5; assay: In-solution competition ELISA; format: binding, human; conditions: competition with biotinylated peptide bio-57 (0.1 μg/ml) for mAb 2F5 (0.2 μg/ml), peptide 1:3 dilutions from 0.04 mM, 2 h at 37°C, duplicate, at least two experiments; for IC50: read-out: IC50 of competitor peptide, mAb 2F5
Description: as §1

[3] = competition with biotinylated peptide bio-0705 (0.1 μg/ml) for mAb 4E10 (0.5 μg/ml), peptide 1:3 dilutions from 0.04 mM, 2 h at 37°C, duplicate, at least two experiments

## ELDKWASLWNWFNITNWLWYIKIEELKSKIKRIENEIKRIKK [C22-pT, reference compound]
[1]; [3]
  IC50: 3.27 µM
[2]
  IC50: > 10 µM

## WTLNIFWIWSYLDWSNKKKK-NH2 [compound 08023, scrambled negative control peptide based on 09122]
[1]; [3]
  IC50 of competitor peptide, mAb 4E10: did not interact
[2]
  IC50 of competitor peptide, mAb 2F5: did not interact

## ELDKWASLWNWFDITNWLWYIKIEELKSKIKRIENEIKRIKK [compound 09128]
[1]; [3]
  IC50: 0.0009 µM
[1]; in-solution competition assay
  enhancement in IC50 compared to control peptide 94.1, mAb 4E10: more than 80 fold
[2]
  IC50: 0.0763 µM
